Patent publication US20100113613A1, “CYCLOHEXANE POLYALCOHOL FORMULATION FOR TREATMENT OF DISORDERS OF PROTEIN AGGREGATION” (WARATAH PHARMACEUTICALS, priority 2006, published 2010)
Where “and” joins values, the source holds several entries; their conditions need not be identical. Identical values can stand only once.

How the values were obtained:
[1] = in vivo; details: dog, po, 150 mg/kg
Protocol: Plasma PK of a scyllo-cyclohexanhexyl in dogs was assessed after 14 days oral dosing of 15, 50 and 150 mg/kg, administered twice daily. As on Day 1 of this study Cmax and AUC values increased proportionally with dose level of scyllo-cyclohexanehexyl. However, dose-normalised exposures appeared to decrease with dose. This contrasts with positive trend observed after acute exposure. […] As for single doses, the scyllo-cyclohexanehexyl was absorbed rapidly, with tmax observed between 1.1 and 1.8 hours post-dose. […] Estimates of MRT were consistent. The Vdss and Cl/F values were similar for all dose levels.

[2] = CSF and plasma levels at end of 14 day repeat dose study in dogs; type: in vivo, dog; details: 30 mg/kg/day for 14 days
Protocol: CSF was also collected from dogs at the end of the 14 day repeat study upon necropsy (approximately 24 hours after the final dose was administered). Levels of the scyllo-cyclohexanehexyl in CSF increased with dose and followed the profile observed in plasma.

[3] = in vivo; details: rat, po, 150 mg/kg
Protocol: (§1) Three studies were performed to investigate the pharmacokinetics of oral administration of a scyllo-cyclohexanehexyl (Table 1):
Plasma pharmacokinetics (PK) of a scyllo-cyclohexanehexyl in rats was assessed after single oral doses of 15, 50 and 150 mg/kg. After single oral doses in rats, maximum plasma concentration (Cmax) and exposure (AUC0-t) values increased proportionally with dose level of the scyllo-cyclohexanehexyl. Other parameters were unchanged with dose level. The scyllo-cyclohexanehexyl was absorbed rapidly, with mean tmax observed between 1.0 and 2.2 hours post-dose. […] Estimates of mean residence time (MRT) were consistent. Volumes of distribution (Vdss) were large, indicating wide distribution of scyllo-cyclohexanehexyl in rats.

[4] = Brain penetrance: plasma and CSF pharmacokinetics after single oral doses in dogs; type: in vivo, dog
Source text: CSF bathes the central nervous system and sits on the inside of the blood brain barrier. Although a centrally-acting drug will still need to penetrate brain tissue to exert an effect, quantification of drug in CSF may provide a gross estimate of brain-penetrance.

[5] = Single oral and intravenous dose pharmacokinetics, dose range-finding study in beagle dogs; type: in vivo, beagle dog; details: dogs, comparison of PK profiles following oral and i.v. administration
Protocol: PK of single oral doses of the scyllo-cyclohexanhexyl was also investigated in a preliminary fashion in a dose range-finding study in 5 beagle dogs. […] The Cmax and AUC values increased proportionally with dose, consistent with observations in the larger study. Estimates of t½ ranged from 2 to 5 hours. Neither dose nor route of administration had any clear effect on t½, MRT, Cl/F or Vdss.

[6] = in vivo; details: dog, po
Protocol: as §1
Two studies have investigated the single dose PK of oral administration of a scyllo-cyclohexanehexyl in dogs. The 14 day study investigated 18 animals. On Day 1 of this study Cmax and AUC values increased proportionally with dose level of a scyllo-cyclohexanehexyl. […] The extensive brain penetrance of the scyllo-cyclohexanhexyl (see below) may be relevant in this regard.

[7] = in vivo; details: rat
Protocol: Plasma PK of a scyllo-cyclohexanehexyl compound in rats was assessed after 28 days oral dosing of 15, 50 and 150 mg/kg, administered twice daily. […] Indeed, at this dose level, the Vdss, clearance and elimination rates appeared to be reduced with repeated dosing. […] As for single doses, the scyllo-cyclohexanehexyl was absorbed rapidly, with mean tmax observed between 1.2 and 1.3 hours post-dose. […] Estimates of MRT were consistent.

[8] = single oral doses 20, 80, 240 mg/kg

AUC(0-t) [1]: 523 µg·h/mL
Tmax [1]: 1.1 to 1.8 h
t½ [1]: 2.9 to 4.7 h
levels in both plasma and CSF (12 and 24 hours after the last administration) [2]: ~4000 ng/mL
half life (t1/2) [3]: 2.1 to 2.7 h
mean tmax [3]: 1.0 to 2.2 h
Mean Cmax and AUC0-Inf in CSF as % of that observed in plasma [4]: 60%
plasma tmax (same animals) [4, 8]: 2.3 to 2.8 h
tmax in CSF [4, 8]: 2.8 to 4.0 h
Mean Cmax in CSF as % of plasma Cmax ([4]; single oral doses 20, 80, 240 mg/kg, same animals): 27-66%
AUC0-Inf in CSF as % of that in plasma ([4]; single oral doses, same animals, listed as scyllo-cyclohexanehexyl): 62% and 65%
estimated bioavailability [5]: > 90%
Tmax [6]: 1.2 to 2.2 h
t½ [6]: 1.7 to 2.2 h
mean plasma concentration 12 hours after the last administration [7]: ~6000 ng/mL
AUC(0-t) ([7]; po, 150 mg/kg): 573 µg·h/mL
mean tmax ([7]; po, 150 mg/kg): 1.2 to 1.3 h
t½ ([7]; po, 150 mg/kg): 3.1 to 4.4 h
Substance: scyllo-inositol [AZD-103]
